Results published in patent publication US8759387B2, “Arylalkylamine compound and process for preparing the same” (Mitsubishi Tanabe Pharma Corporation, priority 2004, dated 2014).
Structures can show the parent of a compound that is named as a salt.

What was measured:
[1] = system: rat parathyroid cells; test: Suppressing effect on PTH production, in vitro test using rat parathyroid cells (PTH (1-84) ELISA); format: cell-based; conditions: primary cultured rat parathyroid cells, 1.15 mM Ca, 22 to 24 hours culture
Description: In Vitro Test Using Rat Parathyroid Cells
By using primary cultured cells prepared from the parathyroid in rats, suppressing effect on PTH production was examined according to the following in vitro test.
(1) Preparation and Culture of Rat Parathyroid Cells:
Thirty-six 10-weeks old male CD (SD) IGS rats (Crj series, grade: SPF, CHARLES RIVER LABORATORIES JAPAN, INC.) were euthanasically sacrificed under ether anesthesia, the thyroid gland together with the parathyroid glands were cut out under sterilized conditions, and preserved in ITS-containing DMEM/F-12 medium (low Ca). The parathyroid glands were separated from the obtained material under observation by stereoscopic microscope, and collected in the same medium. Next, the medium was discarded, the parathyroid glands were washed with a phosphate buffer solution (PBS(−)) containing no calcium and magnesium ions, 5 ml of a collagenase solution [PBS(−) containing 1.5 mg/ml of collagenase type IV (Gibco Co., catalogue No. 17104-019)] was added, and digested at 37° C. for 1 hour with shaking. After digestion, the enzyme solution was discarded, the parathyroid glands were quickly minced with a scalpel in a laboratory dish, and were collected in 7 ml of a collagenase solution, and digested again at 37° C. for 90 minutes with shaking.
Cell debris was removed using cell strainer, the residue was removed, and then, the cells were collected. They were washed twice with an ITS-containing DMEM/F-12 medium (low Ca) containing 5% FCS, and suspended in the same medium. The parathyroid cells were suspended at the concentration of about 5×10^4 cells/ml, and were seeded to 96-well plate (200 μl/well), and cultured (pre-culture) at 37° C. for about 24 hours in a CO2 incubator.
The ITS-containing DMEM/F-12 medium (low Ca) to be used mentioned above was prepared as follows. Ca-free DMEM (Dulbecco's modified Eagle's medium) (Gibco Co., catalogue No. 21068-028)(500 ml), F-12 (F-12 nutrient mixture; Gibco Co., catalogue No. 11765-054)(500 ml) and 10 ml of ITS (a mixture containing 5 μg/ml of insulin, 5 μg/ml of transferrin and 5 ng/ml of selenium) (ITS+Premix; BD Biosciences Co., catalogue No. 35435) were mixed. To the mixture was dissolved 3.5745 g of HEPES (NACALAI TESQUE Co., catalogue No. 17547-95), and 10 ml of 200 mM L-glutamine (Gibco Co., catalogue No. 25030-081) and 1 ml of Penicillin-Streptomycin solution (100×Penicillin-Streptomycin, liquid; Gibco Co., catalogue No. 15140-122) were added, and the resulting mixture was sterilized by filtration, and then, used. Ca concentration in the medium is about 0.15 mM.
(2) Test of Suppressing Effect on PTH Production
Rat parathyroid cells were pre-cultured as mentioned in the above (1), then, the medium was changed, and the cells were cultured for 22 to 24 hours in a medium to which a test compound and CaCl2 had been added (96-well plate, 200 μl/well). Various concentrations of the test compound and CaCl2 were added to a serum-free ITS-containing DMEM/F-12 medium (low Ca), and the resulting medium was used. When the test compound is to be added, CaCl2 was added so that the Ca concentration became 1.15 mM. […]
PTH (1-84) in the above-mentioned culture supernatant was measured by the ELISA Method, and determined as a PTH production value. […]
Based on the measured value (PTH production value), of the test compounds, the inhibition rate in PTH production was calculated. […]

[2] = biological target: T1, human CaSR (Homo sapiens, UniProt P41180); test: CaSR activating effect, in vitro test using CaSR expressing cells (intracellular calcium, Fura-2/FDSS); format: cell-based; conditions: CHO cells stably expressing human CaSR and Gα16; change in intracellular calcium concentration
T1 construct: the full length cDNA encoding CaSR was obtained first as three divisional parts; expressed in transfected cells
T1 sequence (P41180 20-1078): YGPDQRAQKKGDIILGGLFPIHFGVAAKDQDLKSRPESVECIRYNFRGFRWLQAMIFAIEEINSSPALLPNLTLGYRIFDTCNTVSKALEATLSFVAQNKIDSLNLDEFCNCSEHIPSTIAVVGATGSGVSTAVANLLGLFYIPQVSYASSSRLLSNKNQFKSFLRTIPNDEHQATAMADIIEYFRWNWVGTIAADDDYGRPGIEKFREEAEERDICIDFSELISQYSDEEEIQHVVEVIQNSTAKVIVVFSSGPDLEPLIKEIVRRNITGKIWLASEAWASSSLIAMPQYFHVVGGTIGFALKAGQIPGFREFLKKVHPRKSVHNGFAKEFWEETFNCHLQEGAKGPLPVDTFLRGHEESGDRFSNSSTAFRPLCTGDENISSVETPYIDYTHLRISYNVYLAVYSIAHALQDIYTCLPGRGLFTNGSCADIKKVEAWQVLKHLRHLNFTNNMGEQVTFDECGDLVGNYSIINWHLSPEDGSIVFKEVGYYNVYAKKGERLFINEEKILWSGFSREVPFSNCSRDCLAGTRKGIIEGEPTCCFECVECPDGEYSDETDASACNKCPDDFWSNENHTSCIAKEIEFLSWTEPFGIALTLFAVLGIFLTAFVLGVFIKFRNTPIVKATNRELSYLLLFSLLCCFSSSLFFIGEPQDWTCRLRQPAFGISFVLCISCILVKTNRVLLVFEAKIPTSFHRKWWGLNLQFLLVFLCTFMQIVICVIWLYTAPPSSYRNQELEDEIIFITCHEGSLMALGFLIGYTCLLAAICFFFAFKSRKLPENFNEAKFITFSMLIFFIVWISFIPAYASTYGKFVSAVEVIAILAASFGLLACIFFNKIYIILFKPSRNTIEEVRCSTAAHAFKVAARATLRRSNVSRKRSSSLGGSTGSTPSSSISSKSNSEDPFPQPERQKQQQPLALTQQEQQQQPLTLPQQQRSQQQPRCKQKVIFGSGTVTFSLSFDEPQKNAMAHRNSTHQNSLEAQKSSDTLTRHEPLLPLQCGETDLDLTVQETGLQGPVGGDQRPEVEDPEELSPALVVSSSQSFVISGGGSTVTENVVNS
Description: In vitro test using CaSR expressing cells
CaSR is a member of G protein-coupled receptor (GPCR). When CaSR of cells are activated by stimulating with extracellular Ca^2+ ion or an agonist (a compound having CaSR activating effect), etc., phospholipase C(PLC) is activated through G protein (Gq), and an intracellular calcium concentration is increased.
Thus, an activating effect on CaSR was examined by using CaSR expressing cell line and referring to change in an intracellular calcium concentration as an index. Preparation of cell strains and a test using the same are, more specifically, carried out as mentioned in the following (1) and (2).
(1) Acquisition of Human CaSR Expressing Cell Line
cDNA fragment encoding human CaSR was obtained from human kidney derived cDNA library by PCR.
[Primer to be Used for PCR was Designed Based on Known Nucleic Acid Sequence Information on Human CaSR (GenBank/EMBL Accession No. D50855; GenBank/EMBL Accession No. NM000388;
• Aida et al., Biochem. Biophys. Res. Commun., 214:524-529, 1995; • Garrett et al., J. Biol. Chem., 270: 12919-12925, 1995, etc.). Also, the full length cDNA encoding CaSR was obtained first as three divisional parts.]
These cDNA fragments were adequately connected to an expression vector to obtain a plasmid for expressing a functional human CaSR in animal cells.
Also, this human CaSR expression plasmid was transfected to CHO cells with a Qα16 expression plasmid α plasmid which is to express a subunit (α16) of G protein], and selected from a medium containing neomycin (G418) to obtain stable expressing cell line.
The obtained cell line stably expressed CaSR of human and α16 subunit of G protein.
(2) Measurement of Calcium Concentration in Cells
By using the CaSR expressing cell line obtained in the above-mentioned (1), change in an intracellular calcium concentration was measured at the time when the cells were stimulated in the presence or in the absence of a test compound as follows.
First, cells were collected using a cell scraper, suspended in a solution comprising Hepes buffer [10 mM Hepes (7.3), 10 mM glucose, 140 mM NaCl, 5 mM KCl, 2 mM CaCl2, 1 mM MgCl2] to which 0.1% cremophor and 3 μM Fura-2 had been added, and reacted at 37° C. for 1 hour under the conditions wherein a test compound of various concentrations (or conditions not added).
After being washed, the cells suspended in Hepes buffer were seeded to a plate (about 2×10^5 cells per 1 well of 96-well plate), and fluorescent intensity (Ratio of 340/380 nm) was measured using FDSS (Functional Drug Screening Sysytem; Hamamatsu Photonics K. K.) to examine change in intracellular calcium concentrations.
CaSR activating effect was confirmed basing on the value (change in an intracellular calcium concentration) measured in the reaction carried out in the presence of the test compound, a CaSR activating ability was confirmed.
Also, from the measured values (change in an intracellular calcium concentration) of the test compound with various concentrations, a concentration/response curve was drawn to obtain an EC50 value (concentration of agonist giving a half maximal response).

| Compound | IC50 [1] | EC50 [2] |
| --- | --- | --- |
| C[C@@H](N[C@H]1CCN(c2ccc(S(=O)(=O)NCCN(C)C)cc2)C1)c1cccc2ccccc12 [Example 12.020] | 0.27 nM | 0.018 µM |
| C[C@@H](N[C@H]1CCN(C(=O)Cc2ccccc2C(F)(F)F)C1)c1cccc2ccccc12 [Example 5.023] | < 10 nM | 0.42 µM |
| C[C@@H](N[C@H]1CCN(c2ccc(C(=O)O)cc2)C1)c1cccc2ccccc12 [Example 3.001, 4-[(S)-3-[(R)-1-(naphthalen-1-yl)ethylamino]pyrrolidin-1-yl]benzoic acid hydrochloride] | 8 nM | 0.29 µM |
| (S)-1-(1H-tetrazol-5-yl)pyrrolidin-3-yl-[(R)-1-(naphthalen-1-yl)ethyl]amine hydrochloride [Example 12.028] | 0.47 nM | 0.017 µM |
| C[C@@H](N[C@@H]1CCCN(c2ccccn2)C1)c1cccc2ccccc12 [Example 1.077] | 5.3 nM | 0.42 µM |
